Test systems include RPMI-8226; HCT-116; OVCAR-4; SK-MEL-5; K562; SW-620; HT-29; NCI-H460; COLO 205; HCC 2998; LOX IMVI; NCI/ADR-RES; SNB-19; NCI-H226; SF-295; Malme-3M; KM12; SF-268; HCT-15; NCI-H522.
Common to all, as to experiment: NCI anticancer screen, dose series, 48 h

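Test compounds were applied to cells in 96-well plates for 48 hours at 5 doses. GI50 is the concentration that inhibits growth by half.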 Calls of active or inactive are those of the source. Cut-off read from the data, not from the text of the source: active = GI50 up to about 1.1 µM and inactive = higher.

In the case of `Cc1ccc2nc3c(C(=O)NCCN(C)C)cccc3cc2c1`, the GI50 in the assay with RPMI-8226 is 1.58 µM (inactive); in the assay on HCT-116 it was 0.807 µM (active); in the assay with OVCAR-4, 3.03 µM (inactive); in the assay on SK-MEL-5, 1.76 µM (inactive); in the assay on K562, 2.36 µM (inactive); with SW-620 it was 1.39 µM (inactive). The GI50 in the assay with HT-29 was 1.14 µM (inactive); in the assay with NCI-H460 it was 0.438 µM (active); in the assay with COLO 205 it was 1.02 µM (active); with HCC 2998, 3.8 µM (inactive); with LOX IMVI, 1.71 µM (inactive); with NCI/ADR-RES, 1.13 µM (inactive). Also, the GI50 in the assay with SNB-19 is 2.04 µM (inactive); with NCI-H226, 1.45 µM (inactive); in the assay on SF-295 it was 1.95 µM (inactive); in the assay with Malme-3M it was 1.77 µM (inactive); in the assay on KM12 it was 2.9 µM (inactive); with SF-268 it was 1.26 µM (inactive). In addition, the GI50 in the assay with HCT-15 is 0.834 µM.
Consider `COC(=O)C(NC(=O)c1ccccc1)C(c1ccc(Cl)cc1)P(=O)(OC)OC` (configuration not stated), for which the GI50 in the assay on RPMI-8226, in the assay with HCT-116, in the assay with OVCAR-4, in the assay on SK-MEL-5, in the assay with K562 and in the assay with SW-620 was > 100 µM (inactive) in each case. The GI50 in the assay on HT-29, with NCI-H460, in the assay with COLO 205, in the assay on NCI-H522, in the assay with HCC 2998 and in the assay on LOX IMVI was > 100 µM (inactive) each time. The GI50 in the assay with SNB-19 was > 100 µM (inactive); in the assay with NCI-H226, > 100 µM (inactive); with SF-295 it was 97.5 µM (inactive); in the assay with KM12, > 100 µM (inactive); with SF-268, > 100 µM (inactive); with HCT-15 it was > 100 µM.
Consider `O=c1cc[nH]c(=O)[nH]1` [URACIL], for which the GI50 in the assay on RPMI-8226 was > 946 µM (inactive); in the assay with HCT-116, 261 µM (inactive); in the assay on OVCAR-4 it was > 656 µM (inactive); in the assay on SK-MEL-5 it was 177 µM (inactive); in the assay on K562, 465 µM (inactive); in the assay with SW-620, 361 µM (inactive). In addition, the GI50 in the assay on HT-29 is 509 µM (inactive); with NCI-H460 it was 305 µM (inactive); in the assay on COLO 205, 187 µM (inactive); with NCI-H522, 371 µM (inactive); in the assay with HCC 2998 it was 322 µM (inactive); with LOX IMVI, 375 µM (inactive). Moreover, the GI50 with NCI/ADR-RES is > 562 µM (inactive); in the assay with SNB-19, 431 µM (inactive); with NCI-H226 it was 329 µM (inactive); with SF-295, 382 µM (inactive); with KM12 it was 237 µM (inactive); in the assay on SF-268, 578 µM (inactive). In addition, the GI50 in the assay on HCT-15 was 798 µM.
As to `CC(=O)O[C@H]1CC[C@H]2[C@@H]3CC[C@H]4Nc5c(cnn5S(C)(=O)=O)C[C@]4(C)[C@H]3CC[C@]12C`, the GI50 was > 100 µM (inactive) in the assay with RPMI-8226; 46.8 µM (inactive) with HCT-116; 18.5 µM (inactive) with OVCAR-4; 84.3 µM (inactive) in the assay on SK-MEL-5; 62.7 µM (inactive) with K562; 48.5 µM (inactive) with HT-29. Besides, the GI50 was 68.2 µM (inactive) with NCI-H460; > 100 µM (inactive) in the assay with COLO 205; 70 µM (inactive) with NCI-H522; 56.4 µM (inactive) in the assay with HCC 2998; 87.1 µM (inactive) in the assay on NCI/ADR-RES; 36.7 µM (inactive) in the assay with SNB-19. In addition, the GI50 is 53.5 µM (inactive) in the assay on NCI-H226; 46.8 µM (inactive) in the assay with SF-295; 38.7 µM (inactive) in the assay with Malme-3M; > 100 µM (inactive) in the assay on KM12; > 100 µM in the assay with HCT-15.
As for `Cc1cc(=O)oc2cc(OCC(O)COC(C)C)ccc12` (configuration not stated), the GI50 in the assay with RPMI-8226 was > 100 µM (inactive); in the assay on HCT-116, > 100 µM (inactive); with OVCAR-4, 59.2 µM (inactive); in the assay with SK-MEL-5, > 100 µM (inactive); in the assay on K562, > 100 µM (inactive); with SW-620 it was 99.1 µM (inactive). Moreover, the GI50 in the assay with HT-29 was > 100 µM (inactive); with NCI-H460 it was > 100 µM (inactive); with COLO 205 it was > 100 µM (inactive); in the assay with NCI-H522 it was > 100 µM (inactive); in the assay on HCC 2998 it was > 100 µM (inactive); in the assay on LOX IMVI, 88.3 µM (inactive). Further, the GI50 in the assay on NCI/ADR-RES, in the assay on SNB-19, in the assay on SF-295, in the assay on Malme-3M, with KM12 and with SF-268 was > 100 µM (inactive) throughout. In addition, in the assay with HCT-15, the GI50 is > 100 µM.
`CN1C2CC(=O)CC1[C@H](O)[C@@H]2O`: the GI50 in the assay with RPMI-8226, in the assay on HCT-116, in the assay on K562, with SW-620, in the assay on HT-29 and in the assay on NCI-H460 was > 100 µM (inactive) each time. In addition, the GI50 in the assay on COLO 205, in the assay on HCC 2998, in the assay with LOX IMVI, with NCI/ADR-RES, in the assay on SNB-19 and with NCI-H226 was > 100 µM (inactive) in each case. The GI50 in the assay on SF-295 is > 100 µM (inactive); in the assay on Malme-3M, > 100 µM (inactive); in the assay on KM12 it was > 100 µM (inactive); with SF-268 it was > 100 µM (inactive); in the assay with HCT-15, > 100 µM.
Turning to `[O-][S+]1c2ccccc2N=C(c2ccc3ccccc3c2)CC1c1ccccc1` (configuration not stated), the GI50 was 29.6 µM (inactive) in the assay with RPMI-8226; 19.1 µM (inactive) in the assay on HCT-116; 20.2 µM (inactive) with OVCAR-4; 27.7 µM (inactive) with SK-MEL-5; 23.7 µM (inactive) in the assay on K562; 15.3 µM (inactive) in the assay with SW-620. For the same compound, the GI50 in the assay on HT-29 was 17.4 µM (inactive); in the assay with NCI-H460 it was 19.7 µM (inactive); with COLO 205 it was 19.1 µM (inactive); with NCI-H522 it was 18.2 µM (inactive); in the assay with HCC 2998, 21.9 µM (inactive); with LOX IMVI, 21.1 µM (inactive). Moreover, the GI50 was 17.9 µM (inactive) in the assay on SNB-19; 23.3 µM (inactive) in the assay with NCI-H226; 19.9 µM (inactive) in the assay with SF-295; 13.9 µM (inactive) in the assay with KM12; 18.2 µM (inactive) in the assay on SF-268; 16.4 µM with HCT-15.
As to `COc1cc2c(cc1OC)C(=O)/C(=C/c1cc(OC)c(OC)c(OC)c1)C2`, the GI50 with RPMI-8226, in the assay with OVCAR-4, with SK-MEL-5, in the assay with K562, with HT-29 and with NCI-H460 was > 100 µM (inactive) each time. For the same compound, the GI50 in the assay on COLO 205 was > 100 µM (inactive); with NCI-H522, 14.6 µM (inactive); in the assay with NCI/ADR-RES, 23.7 µM (inactive); in the assay with SNB-19 it was > 100 µM (inactive); with NCI-H226 it was > 100 µM (inactive); in the assay on SF-295, > 100 µM (inactive). Also, the figures for the GI50 with Malme-3M, in the assay with KM12 and with HCT-15 were > 100 µM (inactive), > 100 µM (inactive) and > 100 µM, respectively.

These data come from ChEMBL document CHEMBL1201862, “PubChem BioAssay data set” (2004).
